Reference: patent US20230124374A1, “COMPOSITIONS AND METHODS FOR EYE HEALTH COMPRISING VERY LONG CHAIN FATTY ACIDS” (BAUSCH + LOMB IRELAND LIMITED, priority 2020, published 2023)
Values belong to the molecule of their own block, whether it stands above or below them.

Assays:
[1] = levels as high as 800.0 mg; cited from earlier work
[2] = single-dose bioavailability study, gavage feeding of 32:6 n-3 loaded liposomes, GC-MS of tissue lipids; format: in vivo, wild-type (WT) C57BL/6J mice
Description: FIGS. 1A and 1B show wild-type (WT) mice single-dose bioavailability studies: (1A) Serum absorption kinetics of C32 acid (6n-3) (“32:6n-3”) after single-dose gavage feeding of 6 mg/mouse (n=4 mice/time point) and (1B) retina and RPE uptake of 32:6 n-3 after single-dose gavage feeding. No VLCPUFAs were detected in liver, brain, or RBC membranes at any time point. Data are presented as mean±SEM (***P<0.005; **P<0.01; *P<0.05).
Three month old wild-type (WT) C57BL/6J mice (22±3 g) were each gavage fed 6 mg per day of C32 acid (6n-3) (“32:6 n-3”) loaded VLCPUFA liposomes (0.1 mL) (250 mg/kg body weight) prepared as disclosed in Gorusupudi et al. PNAS 118(6), e2017739118 (2021), which is incorporated herein by reference in its entirety. The mice were killed 0, 2, 4, 8, and 24 h after gavage (n=4 mice/time interval) to harvest the blood and other tissues. Eyes were dissected under a microscope to separate the retina from the RPE. One pair of retinas/mouse was used for lipid extraction, and blood was centrifuged for 5 minutes at 7,500 rpm to separate serum from RBCs. Serum, RBCs, brain, liver, retina, and RPE were used for lipid extractions and GC-MS analysis.
(§1) On the other hand, 32:6 n-3 remained undetectable in liver, brain, and red blood cell (RBC) membranes throughout the 24 h period. Longer-term absorption was studied by gavage feeding VLCPUFA-loaded liposomes (0.1 mL) to WT (22±3 g) and conditional KO mice developed with an intention to ablate Elov14 expression completely in both rods and cones (E4cKO mice) (23±3 g) for 15 d with 0, 1, and 2 mg/d 32:6 n-3 (n=6 mice/group). Mice were fed each morning with liposomes prepared as above containing 0 mg/d (0 mg/kg BW), 1 mg/d (40 mg/kg BW), or 2 mg/d (80 mg/kg BW) of 32:6 n-3. Mice were killed at the end of the experiments, and retina, RPE, liver, serum, RBCs, and brain tissues were harvested, extracted for lipids, and analyzed by GC-MS.

[3] = repeated-dose (15 d) bioavailability study, gavage feeding of 32:6 n-3 loaded liposomes, GC-MS of tissue lipids; format: in vivo, WT mice; conditions: 15 d gavage
Description: FIGS. 2A and 2B show WT mice repeated-dose bioavailability studies: (2A) Accumulation of 32:6 n-3 in mouse retina and RPE after 15 d of gavage feeding (n=6 mice/group) and (2B) Bioaccumulation of 32:6n-3 in serum, RBC, and liver after 15 d of gavage feeding. […] Data are presented as mean±SEM (***P<0.005; **P<0.01; N.S.: not significant; N.D.: not detectable).
as §1

[4] = phospholipid analysis of retina and RPE by LC-MS/MS after 15 days of gavage feeding; format: in vivo, WT mice; conditions: 15 days gavage, 2 mg/day, supplemented WT animals
Description: FIGS. 3A and 3B show phospholipid analysis of wild type (WT) mice after 15 days of gavage feeding of VLCPUFA 32:6n-3 (2 mg/day): (3A) Retina and (3B) RPE. Data presented as mean±SEM (n=8 mice/group) (p values: *p<0.05; N.S.: not significant; N.D.: not detectable).
(§2) Retina and RPE were extracted for phospholipid analysis using liquid chromatography-tandem MS (LC-MS/MS), and increases in phosphatidylcholine (PC)-22:6/32:6 were detected in the retina and RPE in the supplemented WT animals (FIGS. 3A and 3B). Retinal and RPE 32:6 n-3 levels in the E4cKO mice were one-third and one-half of the levels in the age-matched WT mice, respectively (FIG. 4A).

[5] = long-term uptake of 32:6 n-3 in Elov14 rod-cone conditional KO mice, 15 d gavage feeding; format: in vivo, E4cKO mice; conditions: 2 mg/d
Description: FIGS. 4A and 4B show long-term uptake of 32:6n-3 (2 mg/d per mouse) in Elov14 rod-cone conditional KO (E4cKO) mice: (4A) Accumulation of 32:6 n-3 in E4cKO mouse retinas and RPE in comparison to age-matched WT mice after 15 d of gavage feeding (n=6 mice/group) and (4B) Accumulation of 32:6n-3 in liver and RBCs in E4cKO mice in comparison to age-matched WT mice after 15 d of gavage feeding. Data are presented as mean±SEM (**P<0.01; N.S.: not significant; N.D.: not detectable).
as §1, §2

[6] = single gavage dose 6 mg/mouse, 4 to 8 h after gavage
[7] = single gavage dose 6 mg/mouse, throughout the 24 h period
[8] = 32:6 n-3-fed groups versus control mice (undetectable)
[9] = versus undetectable levels at 0 mg/d

Molecule: vitamin E
adverse effects [1]: No adverse effects

time after oral administration at which serum 32:6 n-3 became detectable ([2]; single gavage dose 6 mg/mouse (250 mg/kg), serum): ≤ 2 h
32:6 n-3 in the RPE [2, 6]: significant increase
32:6 n-3 in the retina [2, 6]: significant increase
32:6 n-3 in brain [2, 7]: undetectable
32:6 n-3 in liver [2, 7]: undetectable
32:6 n-3 in red blood cell (RBC) membranes [2, 7]: undetectable
VLCPUFAs in the brain [3]: no VLCPUFAs were ever detectable
total retinal VLCPUFAs ([3]; 1 mg/d group): 0.535±0.06%
total retinal VLCPUFAs ([3]; 2 mg/d group): 0.872±0.10%
32:6 n-3 in the liver ([3]; 2 mg/d group (only group with detectable levels)): detectable
RBC VLCPUFAs [3, 8]: significantly increased
serum VLCPUFAs [3, 8]: significantly increased
increase of C32 acid (6n-3) level in RPE versus 0 mg/d controls ([3]; both fed groups (1 and 2 mg/d)): sevenfold
increase of C32 acid (6n-3) level in the retina versus 0 mg/d controls ([3]; both fed groups (1 and 2 mg/d)): more than twofold
phosphatidylcholine (PC)-22:6/32:6 in the RPE [4]: increases
phosphatidylcholine (PC)-22:6/32:6 in the retina [4]: increases
increase of 32:6 n-3 level in the retina relative to control-fed E4cKO mice ([5]; 8-mo-old E4cKO mice, P<0.01): nearly fivefold increase
increase of 32:6 n-3 level in the RPE relative to control-fed E4cKO mice ([5]; 8-mo-old E4cKO mice, P=0.001): 27 fold
total retinal VLCPUFAs ([5]; E4cKO mice): 0.088±0.02%
RBC 32:6 n-3 [5, 9]: became detectable
liver 32:6 n-3 [5, 9]: became detectable
Molecule: CC/C=C\C/C=C\C/C=C\C/C=C\C/C=C\C/C=C\CCCCCCCCCCCCC(=O)O [32:6 n-3, C32 acid (6n-3)]
serum 32:6 n-3 concentration course ([2]; single gavage dose 6 mg/mouse, serum, over the next 24 h): reached a lower steady-state concentration
